Measurements taken from the SangsterLogP compilation.

Test: method code SF-AS, from DOI: 10.1016/j.jct.2013.01.022
Conditions: pH 7.4

Structure (SMILES) | logD
O=C(NC1=NCCC2(CCCCC2)S1)c1ccccc1 | 1.55
Brc1ccc(NC2=NCCC3(CCCCC3)S2)cc1 | 2.43
FC(F)(F)c1ccc(NC2=NCCC3(CCCCC3)S2)cc1 | 2.45
CC(=O)c1ccc(NC2=NCCC3(CCCCC3)S2)cc1 | 1.89
CCc1ccc(NC2=NCCC3(CCCCC3)S2)cc1 | 2.22
c1ccc(NC2=NCCC3(CCCCC3)S2)cc1 | 1.27
Cc1ccc(NC2=NCCC3(CCCCC3)S2)cc1Cl | 2.54

Next, values leading:

logD | Structure (SMILES)
1.75 | CC(C)c1ccc(NC2=NCCC3(CCCCC3)S2)cc1
1.88 | Cc1ccc(NC2=NCCC3(CCCCC3)S2)cc1
2.4 | Clc1ccc(NC2=NCCC3(CCCCC3)S2)cc1
